Assay results reported in patent publication EP0314038A1, “Pyrrolidines” (Byk Gulden Lomberg Chemische Fabrik GmbH, priority 1987, dated 1989).
Where a name gives a salt, the structure may show the parent alone.

Test system: spontan hypertonen Ratte
Assay: antihypertensive effect (systolic blood pressure, tail cuff) in spontaneously hypertensive rats after oral administration
Assay type: in vivo
Details: genetically hypertensive rats (SHR/N/Ibm/Bm), N=6; for BP (% Änderung vs. Kontrolle), Mittelwert für Meßzeitpunkte: Stunden nach Gabe (Tage) 2h (1.+4.Tag): 2h after dosing, mean of days 1+4; for BP (% Änderung vs. Kontrolle), Mittelwert für Meßzeitpunkte: Stunden nach Gabe (Tage) 6h (1.-4.Tag): 6h after dosing, mean of days 1-4
Text: Die antihypertensive Wirksamkeit der erfindungsgemäßen Verbindungen kann am Modell der spontan hypertonen Ratte nachgewiesen werden.
Zur Bestimmung der antihypertensiven Wirkung werden die unten aufgeführten Verbindungen in den angegebenen Dosen an vier aufeinander folgenden Tagen an je 6 männlichen Ratten (Stamm SHR/N/Ibm/Bm, 250-350 g) mit genetisch bedingtem Hochdruck (systolischer Blutdruck > 180 mmHg) täglich einmal mittels Schlundsonde verabfolgt. Die Messung des Blutdrucks erfolgt jeweils 6 und gegebenenfalls 2 oder 24 Stunden nach Substanzgabe.
Die Blutdruckmessung wird in einer Wärmekammer bei 36°C vorgenommen, um eine bessere Durchblutung der Schwanzarterie zu erreichen. Hierzu werden die Tiere in perforierte Lochblechkäfige verbracht und 20 - 40 Min. nach Beginn der Aufwärmung gemessen. Zur Messung des systolischen arteriellen Drucks wird eine ringförmige Manschette mit aufblasbarer Gummimembran zur Unterbindung der Durchblutung und ein ringförmiger Piezokristallaufnehmer zur Erfassung der Pulswellen auf den Schwanz aufgeschoben. Nach erfolgter Unterbindung des Blutstroms in der Schwanzarterie wird der Manschettendruck kontinuierlich reduziert. Die Wiederkehr der Pulswellen bei Druckablassen wird automatisch als systolischer Blutdruck erkannt und ausgedruckt (Bühler, R. et al.,: Microprocessor-based automation of blood pressure measurement in the conscious rat. Proceedings of the 4th international symposium on rats with spontaneous hypertension and related studies, Rascher, R. et al. (Eds.), Schattauer Verlag, Stuttgart, New York, 1982, S. 410-413). Pulssignale und Druckverlauf werden zur Auswertung graphisch aufgezeichnet.
Zur Gewöhnung an den Meßvorgang werden die Tiere vor Substanzprüfung 14 Tage trainiert. In der zweiten Trainingswoche werden Blutdruck-Vorwerte erhoben. Tiergruppen, die Substanz erhalten, werden gegen eine Kontrollgruppe geprüft.
In der anscließenden Tabelle werden die untersuchten Verbindungen durch laufende Nummern gekennzeichnet, die mit den jeweiligen Beispielnummern übereinstimmen.
Tabelle I gibt für die Vertreter der erfindungsgemäßen Verbindungen die prozentuale Senkung des Blutdrucks (BP) nach oraler Verabreichung bei der Ratte wieder. Tabelle I

[1] = 25 µmol/kg p.o. once daily on four consecutive days
[2] = 10 µmol/kg p.o. once daily on four consecutive days

SMILES | BP (% Änderung vs. Kontrolle), Mittelwert für Meßzeitpunkte: Stunden nach Gabe (Tage) 2h (1.+4.Tag) [1] | BP (% Änderung vs. Kontrolle), Mittelwert für Meßzeitpunkte: Stunden nach Gabe (Tage) 6h (1.-4.Tag) [1] | BP (% Änderung vs. Kontrolle), Mittelwert für Meßzeitpunkte: Stunden nach Gabe (Tage) 2h (1.+4.Tag) [2] | BP (% Änderung vs. Kontrolle), Mittelwert für Meßzeitpunkte: Stunden nach Gabe (Tage) 6h (1.-4.Tag) [2] | BP (% Änderung vs. Kontrolle), Mittelwert für Meßzeitpunkte: Stunden nach Gabe (Tage) 24h (1.+3.Tag) (25 µmol/kg p.o. once daily on four consecutive days, 24h after dosing, mean of days 1+3)
COC(=O)C1=C(C)NC(C)=C(C(=O)OCCCN2CCCC2Cc2ccc([N+](=O)[O-])cc2)C1c1cccc([N+](=O)[O-])c1 (racemic) [Beispiel 11, 1,4-Dihydro-2,6-dimethyl-4-(+)-(3-nitrophenyl)-pyridin-3,5-dicarbonsäure-3-methyl-5-{3-[2-(±)-(4-nitrobenzyl)-pyrrolidinyl-1]-propyl}-ester-hydrochlorid] | -36,5% | -25,5% |  |  | 
COC(=O)C1=C(C)NC(C)=C(C(=O)OCCCN2CCCC2Cc2ccc(Cl)cc2)C1c1cccc(Cl)c1Cl (racemic) [Beispiel 8, 1,4-Dihydro-2,6-dimethyl-4-(±)-(2,3-dichlorphenyl)-pyridin-3,5-dicarbonsäure-3-methyl-5-{3-[2-(-)-(4-chlorbenzyl)-pyrrolidinyl-1]-propyl}-ester-hydrochlorid] |  |  | -39% | -25,5% | 
CCOC(=O)C1=C(C)NC(C)=C(C(=O)OCCCN2CCCC2Cc2ccc(Cl)cc2)C1c1cccc([N+](=O)[O-])c1 (racemic) [Beispiel 1, 1,4-Dihydro-2,6-dimethyl-4-(±)-(3-nitrophenyl)-pyridin-3,5-dicarbonsäure-3-ethyl-5-{3-[2-(±)-(4-chlorbenzyl)-pyrrolidinyl-1]-propyl}-ester-hydrochlorid] | -55,5% | -43,5% |  |  | 
COC(=O)C1=C(C)NC(C)=C(C(=O)OCCCN2CCCC2Cc2ccc(Cl)cc2)C1c1cccc([N+](=O)[O-])c1 (single isomer, unassigned) [Beispiel 4, 1,4-Dihydro-2,6-dimethyl-4-(+)-(3-nitrophenyl)-pyridin-3,5-dicarbonsäure-3-methyl-5-{3-[2-(-)-(4-chlorbenzyl)-pyrrolidinyl-1]-propyl}-ester-hydrochlorid] |  |  | -48% | -33% | 
COC(=O)C1=C(C)NC(C)=C(C(=O)OCCCN2CCCC2Cc2ccc(Cl)cc2)C1c1cccc([N+](=O)[O-])c1 (racemic) [Beispiel 2, 1,4-Dihydro-2,6-dimethyl-4-(±)-(3-nitrophenyl)-pyridin-3,5-dicarbonsäure-3-methyl-5-{3-[2-(-)-(4-chlorbenzyl)-pyrrolidinyl-1]-propyl}-ester-hydrochlorid] | -47% | -34% |  |  | -13,5%
